Assay results: PMC6934184, “Selective DNA-PKcs inhibition extends the therapeutic index of localized radiotherapy and chemotherapy” (The Journal of Clinical Investigation, 2019)

Molecular target: T1, KIT (Homo sapiens, UniProt P10721)
T1 construct: purchased Thermo Fisher Scientific (Life Technologies) SelectScreen
Assay: SelectScreen Z'LYTE
Format: biochemical
Outline: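 SelectScreen broad panel; activity (Z'LYTE, Adapta) plus binding formats. ATP: Km app for CSF1R Z'LYTE; 10 for CAMK1 Adapta. Readout = % per kinase.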

T1 sequence (P10721 26-976): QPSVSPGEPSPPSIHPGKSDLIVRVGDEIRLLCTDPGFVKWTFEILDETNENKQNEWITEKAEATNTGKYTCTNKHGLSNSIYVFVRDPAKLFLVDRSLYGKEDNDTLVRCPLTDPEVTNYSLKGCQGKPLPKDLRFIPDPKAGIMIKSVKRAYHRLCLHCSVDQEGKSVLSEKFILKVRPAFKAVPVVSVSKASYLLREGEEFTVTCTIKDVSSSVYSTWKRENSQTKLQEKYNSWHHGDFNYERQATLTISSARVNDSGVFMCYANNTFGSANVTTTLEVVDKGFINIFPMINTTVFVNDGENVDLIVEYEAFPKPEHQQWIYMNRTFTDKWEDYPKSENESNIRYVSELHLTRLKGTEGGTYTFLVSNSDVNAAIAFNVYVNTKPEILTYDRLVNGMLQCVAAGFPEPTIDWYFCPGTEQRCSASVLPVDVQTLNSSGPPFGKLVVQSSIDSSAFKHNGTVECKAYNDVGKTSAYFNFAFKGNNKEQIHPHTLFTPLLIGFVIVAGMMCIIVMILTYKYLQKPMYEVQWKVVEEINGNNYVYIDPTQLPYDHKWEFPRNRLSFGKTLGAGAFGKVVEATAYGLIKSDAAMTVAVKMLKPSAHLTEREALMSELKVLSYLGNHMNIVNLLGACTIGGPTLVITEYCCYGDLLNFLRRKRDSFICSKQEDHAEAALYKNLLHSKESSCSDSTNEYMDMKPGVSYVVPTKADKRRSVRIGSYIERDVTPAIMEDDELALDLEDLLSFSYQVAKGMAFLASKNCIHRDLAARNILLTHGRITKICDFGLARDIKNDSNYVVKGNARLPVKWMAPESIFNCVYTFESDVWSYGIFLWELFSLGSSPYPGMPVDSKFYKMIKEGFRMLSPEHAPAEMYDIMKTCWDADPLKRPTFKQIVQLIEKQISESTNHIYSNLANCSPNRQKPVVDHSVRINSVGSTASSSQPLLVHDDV

Question: With `CN(C(=O)CN1CCOCC1)c1ccc2sc3c(-c4cccc5c(=O)cc(N6CC7CCC(C6)O7)oc45)cccc3c2c1` [NU5455] as the compound, how does the inhibition at 1 µM read?
Answer: 5.3%
